Drawing on patent US8426403B2, “Gamma secretase modulators” (priority 2007, dated 2013), this text covers Abtotal/Ab42 selectivity and IC50 for one molecule.

A word on the IC50: it is the concentration that gives 50% inhibition.

The assay deals with Aβ42. Kind of assay: Secretase Reaction and Aβ Analysis in Whole Cells (total Aβ, Aβ40, Aβ42 by ECL sandwich immunoassay). The assay is classed as cell-based. To be noted: HEK293 cells overexpressing APP with Swedish and London mutations. Here is the method: Secretase Reaction and Aβ Analysis in Whole Cells: HEK293 cells overexpressing APP with Swedish and London mutations were treated with the specified compounds for 5 hour at 37° C. in […] of DMEM medium containing 10% fetal bovine serum. At the end of the incubation, total Aβ, Aβ40 and Aβ42 were measured using electrochemiluminescence (ECL) based sandwich immunoassays. Total Aβ was determined using a pair of antibodies TAG-WO2 and biotin-4G8, Aβ40 was identified with antibody pairs TAG-G2-10 and biotin-4G8, while Aβ42 was identified with TAG-G2-11 and biotin-4G8. The ECL signal was measured using Sector Imager 2400 (Meso Scale Discovery).

Each structure is given as a SMILES string.

`COc1cc(/C=C/C2=NC(=O)C(C)(c3ccc(F)cc3)N2)ccc1-n1cnc(C)c1` (centres unmarked) [Compound G4]: under “total Aβ versus Aβ42”, the Abtotal/Ab42 selectivity is recorded as 11 fold. Besides, the IC50 (Homo sapiens, 5 hour at 37° C., ECL sandwich immunoassay, read-out: Ab42 IC50) was determined as 1110 nM.
